Test results published in the supplement of paper PMC10331698.
± gives the standard deviation of the averaged measurements.

Columns and labels:
Assay in all cases: level (log10 ratio to DMSO vehicle control); higher = higher biomarker level / cell amount than vehicle control
[1] = compound: O=C(O)C=C(C(F)(F)F)C(F)(F)F [3,3-Bis(trifluoromethyl)-2-propenoic acid] (in DMSO)
Method: (§1)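 BioMAP Diversity Plus panel of 12 human primary cell co-culture systems (3C, 4H, LPS, SAg, BT, BF4T, BE3C, CASM3C, HDF3CGF, KF3CT, MyoF, Mphg). Compounds were added 1 h before stimulation and left for 24 h (MyoF 48 h; BT 72 h for soluble read-outs or 6 d for IgG). Biomarkers were read by ELISA, cytotoxicity by SRB, PBMC viability and proliferation by Alamar Blue. Each well value was divided by the mean of 8 DMSO control wells on the same plate and log10 transformed; duplicate blinded samples were tested at 4 concentrations.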

Perfluoroundecanoic acid = compound: O=C(O)C(F)(F)C(F)(F)C(F)(F)C(F)(F)C(F)(F)C(F)(F)C(F)(F)C(F)(F)C(F)(F)C(F)(F)F [Perfluoroundecanoic acid] (in DMSO); conditions: 6700 nM
Method: as §1

[2] = compound: O=S(=O)(O)C(F)(F)C(F)(F)C(F)(F)C(F)(F)C(F)(F)C(F)(F)C(F)(F)F [Perfluoroheptanesulfonic acid] (in DMSO)
Method: as §1

[3] = compound: OCCC(F)(F)C(F)(F)C(F)(F)C(F)(F)F [4:2 Fluorotelomer alcohol] (in DMSO)
Method: as §1

[4] = compound: O=S(=O)(O)CCC(F)(F)C(F)(F)C(F)(F)C(F)(F)C(F)(F)C(F)(F)C(F)(F)C(F)(F)F [8:2 Fluorotelomer sulfonic acid] (in DMSO)
Method: as §1

[5] = compound: OCC(F)(F)OC(F)(F)C(F)(F)OC(F)(F)C(F)(F)OC(F)(F)CO [1H,1H,11H,11H-Perfluorotetraethylene glycol] (in DMSO)
Method: as §1

[6] = compound: CCOC(=O)CC(=O)C(F)(F)C(F)(F)F [Ethyl pentafluoropropionyl acetate] (in DMSO)
Method: as §1

Row | Test System | level (log10) ([1]; 6700 nM) | level (log10) ([1]; 20000 nM) | level (log10) ([1]; 60000 nM) | level (log10) (Perfluoroundecanoic acid) | level (log10) ([2]; 1500 nM) | level (log10) ([2]; 4400 nM) | level (log10) ([2]; 13000 nM) | level (log10) ([2]; 40000 nM) | level (log10) ([3]; 6700 nM) | level (log10) ([3]; 20000 nM) | level (log10) ([3]; 60000 nM) | level (log10) ([4]; 6700 nM) | level (log10) ([4]; 20000 nM) | level (log10) ([4]; 60000 nM) | level (log10) ([5]; 6700 nM) | level (log10) ([5]; 20000 nM) | level (log10) ([5]; 60000 nM) | level (log10) ([6]; 6700 nM) | level (log10) ([6]; 20000 nM) | level (log10) ([6]; 60000 nM)
1 | MyoF:SRB | 0.0005 ± 0.012 | -0.005 ± 0.0014 | -0.024 ± 0.0071 | -0.029 ± 0.014 | -0.009 ± 0.0099 | 0.002 ± 0.0028 | 0.002 ± 0.0014 | -0.007 ± 0.0042 | -0.0015 ± 0.0035 | 0.0015 ± 0.0035 | -0.0015 ± 0.005 | -0.0005 ± 0.0021 | -0.009 ± 0.0014 | -0.0035 ± 0.0035 | -0.0065 ± 0.00071 | -0.0145 ± 0.00071 | -0.0445 ± 0.015 | -0.001 ± 0.0028 | -0.0065 ± 0.00071 | -0.0045 ± 0.00071
2 | MyoF:TIMP-1 | -0.0545 ± 0.025 | -0.023 ± 0.023 | -0.0085 ± 0.077 | -0.117 ± 0.055 | 0.021 ± 0.04 | 0.013 ± 0.061 | 0.033 ± 0.054 | 0.11 ± 0.0099 | -0.001 ± 0.04 | 0.013 ± 0.075 | 0.009 ± 0.059 | -0.0185 ± 0.0035 | 0.0095 ± 0.021 | -0.008 ± 0.018 | -0.0035 ± 0.012 | 0.017 | 0.0285 ± 0.005 | -0.005 ± 0.023 | -0.012 ± 0.023 | 0.0125 ± 0.022
3 | MyoF:alpha-SM Actin | -0.003 ± 0.054 | -0.01 ± 0.067 | -0.0795 ± 0.044 | -0.061 ± 0.0085 | 0.0025 ± 0.1 | 0.0035 ± 0.077 | -0.021 ± 0.064 | 0.0025 ± 0.069 | -0.021 | -0.0225 ± 0.0035 | -0.0345 ± 0.018 | 0.034 ± 0.02 | 0.001 ± 0.014 | -0.0125 ± 0.025 | -0.0125 ± 0.026 | -0.057 ± 0.0042 | -0.167 ± 0.037 | -0.0145 ± 0.03 | -0.0235 ± 0.0078 | -0.019 ± 0.013
4 | MyoF:bFGF | 0.0125 ± 0.0064 | 0.0075 ± 0.019 | 0.0325 ± 0.019 | 0.0035 ± 0.0092 | 0.021 ± 0.0071 | 0.0185 ± 0.005 | 0.0105 ± 0.00071 | 0.039 ± 0.02 | -0.0015 ± 0.013 | -0.0025 ± 0.015 | 0.004 ± 0.044 | 0.0045 ± 0.012 | 0.006 ± 0.023 | 0.0265 ± 0.0021 | 0.0045 ± 0.00071 | 0.0045 ± 0.0092 | 0.004 ± 0.011 | -0.0045 ± 0.0064 | 0.0015 ± 0.0021 | 0.0135 ± 0.012
5 | lMphg:CCL2/MCP-1 | -0.007 ± 0.0028 | -0.016 ± 0.0028 | -0.078 ± 0.061 | 0.0025 ± 0.028 | -0.009 ± 0.03 | -0.004 ± 0.047 | 0.003 ± 0.0042 | 0.035 ± 0.0028 | -0.018 ± 0.024 | -0.0325 ± 0.0035 | -0.014 ± 0.031 | 0.0075 ± 0.019 | -0.019 ± 0.016 | 0.0155 ± 0.00071 | -0.0285 ± 0.032 | -0.079 ± 0.034 | -0.073 ± 0.052 | -0.023 ± 0.045 | -0.0135 ± 0.021 | 0.0125 ± 0.037
6 | lMphg:CCL3/MIP-1alpha | -0.0065 ± 0.071 | -0.0015 ± 0.023 | -0.0075 ± 0.016 | -0.004 ± 0.023 | -0.04 ± 0.0071 | -0.0135 ± 0.047 | -0.0225 ± 0.064 | -0.014 ± 0.037 | -0.009 ± 0.0042 | -0.011 ± 0.014 | 0.0005 ± 0.019 | 0.0035 ± 0.03 | 0.0095 ± 0.026 | 0.0065 ± 0.032 | -0.051 ± 0.051 | -0.0435 ± 0.026 | 0.015 ± 0.055 | -0.0265 ± 0.026 | -0.0305 ± 0.0078 | 0.0075 ± 0.022
7 | lMphg:CD40 | -0.0255 ± 0.00071 | -0.0545 ± 0.0035 | -0.071 ± 0.014 | -0.008 ± 0.018 | -0.034 ± 0.021 | -0.007 ± 0.034 | -0.0285 ± 0.043 | -0.0525 ± 0.028 | 0.0015 ± 0.013 | 0.016 ± 0.0085 | 0.0025 ± 0.015 | -0.026 ± 0.023 | -0.052 ± 0.0028 | -0.0995 ± 0.019 | -0.0235 ± 0.019 | -0.0385 ± 0.013 | -0.0755 ± 0.03 | -0.0205 ± 0.0092 | -0.0135 ± 0.0092 | 0.003 ± 0.061
